By IC50 is commonly meant the point on the concentration scale where inhibition reaches its midpoint. Usually MIC stands for the least concentration at which growth counts as inhibited. A higher MIC goes with a less susceptible organism.

The record followed here is ChEMBL document CHEMBL6074695, “Structural Aspects of Mycobacterium tuberculosis DNA Gyrase Targeted by Novel Bacterial Topoisomerase Inhibitors” (ACS Med Chem Lett, 2024).

≈ marks a conversion by molar mass, not a printed value.

The assay relates to Mycobacterium tuberculosis. The class given is functional, organism-based. The settings on record: H37Rv, 120 h.

Regarding `COc1ccc2nccc(CCN3CCC(NCc4cc(F)c(Cl)c(F)c4)CC3)c2n1`, the IC50 was 7 nM.

For `O=c1ccc2ncc(=O)n3c2n1C[C@H]3CN1CCC(NCc2cc3c(cn2)OCCC3)CC1` [GEPOTIDACIN], under “time 5 day”, the MIC came out at 0.86 µM (≈ 0.386 µg/mL). That is a sub-micromolar value.
